What all share (assay type): in vivo
Test [1] concerns black nightshade (Solanum nigrum L.). Kind of test: Test Example 23: pot, soil treatment, metobromuron + fluazifop-P-butyl. As to conditions: 131.25 g/ha; soil treatment, pot; 20th day after treatment. The text has this:
(§1) When the herbicidal activity in a case where two active ingredients are combined, is larger than the simple sum of the respective herbicidal activities of the two active ingredients (the expected activity), it is called a synergistic effect. The activity expected by the combination of two active ingredients can be calculated as follows (Colby S. R., “Weed”, vol. 15, p. 20-22, 1967). E=α+β−(α×β[…]) where α: growth inhibition rate when treated with x (g/ha) of herbicide X, • β: growth inhibition rate when treated with y (g/ha) of herbicide Y, • E: growth inhibition rate expected when treated with x (g/ha) of herbicide X and y (g/ha) of herbicide Y.
(§2) On the 19th day after treatment, the state of growth of barnyardgrass was visually observed and evaluated in accordance with the following standards. The growth inhibition rate (%) [measured value] and the growth inhibition rate (%) [calculated value] calculated by the Colby's method, are shown in Table 2.
(§3) Growth inhibition rate (%)=inhibition rate) (%) of 0 (equivalent to the non-treated area) to 100 (complete kill)
Soil was put into a 1/300,000 ha pot, and seeds of black nightshade (Solanum nigrum L.) were sown. […]
On the 20th day after treatment, the state of growth of black nightshade was visually observed and evaluated in the same manner as in Test Example 1.

In test [2] the test system is barnyardgrass (Echinochloa crus-qalli L.). Briefly: Test Example 5: adzuki bean field, soil treatment, metobromuron + fluazifop-P-butyl. Conditions: 700 g/ha; soil treatment, adzuki bean field; 39th day after treatment.
Excerpt: as §1, §2
(§4) Growth inhibition rate (%)=inhibition rate) (%) of 0 (equivalent to the non-treated area) to 100 (complete kill) […]
On the 39th day after treatment, the state of growth of barnyardgrass (Echinochloa crus-qalli L.) which occurred naturally, was visually observed and evaluated in the same manner as in Test Example 1.

In test [3] the test system is Oriental lady's thumb (Persicaria longiseta). Briefly: Test Example 7: common bean field, soil treatment, metobromuron + trifluralin. Conditions: 1335 g/ha, soil treatment, common bean field, 49th day after treatment, read-out: Growth inhibition rate of Oriental lady's thumb (%) Measured value.
Excerpt: as §1, §2, §4
On the 49th day after treatment, the state of growth of Oriental lady's thumb (Persicaria longiseta) which occurred naturally, was visually observed and evaluated in the same manner as in Test Example 1.

Test [4] deals with barnyardgrass (Echinochloa crus-qalli L.). Kind of test: Test Example 4: soybean field, soil treatment, metobromuron + trifluralin. As to conditions: 890 g/ha, soil treatment, soybean field, 50th day after treatment, read-out: Growth inhibition rate of barnyardgrass (%) Measured value.
Excerpt: as §1, §2, §4
On the 50th day after treatment, the state of growth of barnyardgrass (Echinochloa crus-qalli L.) which occurred naturally, was visually observed and evaluated in the same manner as in Test Example 1.

Test [5] relates to common lambsquarters (Chenopodium album L.). Briefly: Test Example 24: pot, soil treatment, metobromuron + trifluralin. As to conditions: soil treatment, pot, 21st day after treatment, read-out: Growth inhibition rate of common lambsquarters (%) Measured value.
Excerpt: as §1, §2, §3
Soil was put into a 1/300,000 ha pot, and seeds of common lambsquarters (Chenopodium album L.) were sown. On the day after seeding, predetermined amounts of SC containing metobromuron as active ingredient (same as in Test Example 1) and EC containing trifluralin as active ingredient (same as in Test Example 4) were diluted with water corresponding to 1,000 L per hectare and applied for soil treatment.
On the 21st day after treatment, the state of growth of common lambsquarters was visually observed and evaluated in the same manner as in Test Example 1.

Test [6] has as its system common chickweed (Stellaria media L.). Briefly: Test Example 25: pot, soil treatment, metobromuron + trifluralin. Conditions: 445 g/ha, soil treatment, pot, 21st day after treatment, read-out: Growth inhibition rate of common chickweed (%) Measured value.

Regarding `CCCCOC(=O)[C@@H](C)Oc1ccc(Oc2ccc(C(F)(F)F)cn2)cc1` [Fluazifop-P-butyl, butyl (R)-2-[4-[5-(trifluoromethyl)-2-pyridyloxy]phenoxy] propionate], the “Growth inhibition rate of black nightshade (%) Measured value” in test [1] was determined as 25%. Also, the “Growth inhibition rate of barnyardgrass (%) Measured value” in test [2] worked out at 55%.

As to `CCCN(CCC)c1c([N+](=O)[O-])cc(C(F)(F)F)cc1[N+](=O)[O-]` [Trifluralin, α,α,α-trifluoro-2,6-dinitro-N,N-dipropyl-p-toluidine], in test [3], the inhibition (commonly the share of the control response that was lost under treatment) at 1335 g/ha stood at 40%. Also, in test [4], the inhibition at 890 g/ha turned out to be 20%. In addition, in test [5] (296.7 g/ha), the inhibition at 296.7 g/ha worked out at 20%. Further, the inhibition at 445 g/ha in test [5] (445 g/ha) stood at 15%; in test [6] it was 35%. Further, in test [5] (667.5 g/ha), the inhibition at 667.5 g/ha came to 48%.

The values are drawn from patent publication US9993001B2, “Herbicidal composition” (ISHIHARA SANGYO KAISHA, LTD., priority 2014, dated 2018).
